13 compounds from patent US10138238B2, “Pesticidally active polycyclic derivatives with sulfur containing substituents” (Syngenta Participations AG, priority 2015, dated 2018) can be followed below.

What is called mortality is the percentage killed.

Format in all cases: in vivo
Assay [1] concerns Spodoptera littoralis (Egyptian Cotton Leaf Worm). In words: Example B7: Spodoptera littoralis, cotton leaf discs, L1 larvae. To be noted: foliar, 72 h, application rate of 200 ppm, 3 days after infestation. The procedure: (§1) Cotton leaf discs were placed onto agar in 24-well microtiter plates and sprayed with aqueous test solutions prepared from 10'000 ppm DMSO stock solutions. After drying the leaf discs were infested with five L1 larvae. The samples were assessed for mortality, anti-feeding effect, and growth inhibition in comparison to untreated samples 3 days after infestation. Control of Spodoptera littoralis by a test sample is given when at least one of the categories mortality, anti-feedant effect, and growth inhibition is higher than the untreated sample.

Assay [2] deals with Diabrotica balteata (Corn Root Worm). In words: Example B2: Diabrotica balteata, maize sprouts, L2 larvae. The note with it: 96 h, application rate of 200 ppm, 4 days after infestation, read-out: effect in at least one of the two categories (mortality or growth inhibition). The procedure: (§2) Maize sprouts placed onto an agar layer in 24-well microtiter plates were treated with aqueous test solutions prepared from 10'000 ppm DMSO stock solutions by spraying. After drying, the plates were infested with L2 larvae (6 to 10 per well). The samples were assessed for mortality and growth inhibition in comparison to untreated samples 4 days after infestation. The following compounds gave an effect of at least 80% in at least one of the two categories (mortality or growth inhibition) at an application rate of 200 ppm: P1, P2, P3, P4, P5, P6, P7, P8, P9, P10, P11, P12, P13, P14, and P15.

The test system is the same in assay [3]. In words: Example B13: Breakpoint (BP80) against Diabrotica balteata. To be noted: lowest concentration which gives 80% larval mortality; larval feeding/contact. The procedure: as §2
(§3) Insecticidal action against Diabrotica balteata (Corn root worm), Plutella xylostella (Diamond black moth), and Spodoptera littoralis (Egyptian cotton leaf worm). The tests were carried out as described in biological examples B2, B6 and B7, respectively, with the larval feeding/contact activity being reported as Breakpoint (BP80) values in parts per million (i.e. the lowest concentration which gives 80% larval mortality).

Assay [4] has as its system Plutella xylostella (Diamond Back Moth). Put plainly: Example B6: Plutella xylostella, artificial diet, L2 larvae. To be noted: 120 h, application rate of 200 ppm, 5 days after infestation, read-out: effect in at least one of the two categories (mortality or growth inhibition). The procedure:
(§4) 24-well microtiter plates with artificial diet were treated with aqueous test solutions prepared from 10'000 ppm DMSO stock solutions by pipetting. After drying, the plates were infested with L2 larvae (10 to 15 per well). The samples were assessed for mortality and growth inhibition in comparison to untreated samples 5 days after infestation. The following compounds gave an effect of at least 80% in at least one of the two categories (mortality or growth inhibition) at an application rate of 200 ppm: P1, P2, P3, P4, P6, P8, P9, P10, P11, P12, P13, P14 and P15.

Assay [5] relates to Spodoptera littoralis (Egyptian Cotton Leaf Worm). In words: Example B13: Breakpoint (BP80) against Spodoptera littoralis. The note with it: lowest concentration which gives 80% larval mortality; larval feeding/contact. As to the method:
as §1, §3

Assay [6] deals with Plutella xylostella (Diamond black moth). In words: Example B13: Breakpoint (BP80) against Plutella xylostella. The note with it: lowest concentration which gives 80% larval mortality; larval feeding/contact. The procedure: as §4, §3
Assay [7] concerns Euschistus heros (Neotropical Brown Stink Bug). Put plainly: Example B3: Euschistus heros, soybean leaves, N2 nymphs. The note with it: 120 h, application rate of 200 ppm, 5 days after infestation, read-out: effect in at least one of the two categories (mortality or growth inhibition). The procedure: Soybean leaves on agar in 24-well microtiter plates were sprayed with aqueous test solutions prepared from 10'000 ppm DMSO stock solutions. After drying the leaves were infested with N2 nymphs. The samples were assessed for mortality and growth inhibition in comparison to untreated samples 5 days after infestation. The following compounds gave an effect of at least 80% in at least one of the two categories (mortality or growth inhibition) at an application rate of 200 ppm: • P1, P3, P8, P9, P10, P13, P14, and P15

For assay [8], the system named is Diabrotica balteata (Corn Root Worm). In words: Example B14: Breakpoint (BP80) against Diabrotica balteata. To be noted: lowest concentration which gives 80% larval mortality; Table B14. As to the method:
as §2
Insecticidal action against Diabrotica balteata (Corn root worm). The test were carried out as described in biological example B6 with the larval feeding contact activity being reported as Breakpoint (BP80) values in parts per million (i.e. the lowest concentration which gives 80% larval mortality).

Assay [9] deals with Bemisia tabaci (Cotton White Fly). Put plainly: Example B1: Bemisia tabaci feeding/contact activity. To be noted: 144 h, application rate of 200 ppm, adult white flies, 6 days after incubation. The procedure:
Cotton leaf discs were placed on agar in 24-well microtiter plates and sprayed with aqueous test solutions prepared from 10'000 ppm DMSO stock solutions. After drying the leaf discs were infested with adult white flies. The samples were checked for mortality 6 days after incubation.

In assay [10] the test system is Spodoptera littoralis (Egyptian Cotton Leaf Worm). Put plainly: Example B8: Spodoptera littoralis systemic activity. To be noted: 144 h, test rate of 12.5 ppm, lettuce, 6 days after infestation, read-out: effect in at least one of the three categories (mortality, anti-feeding, or growth inhibition). The source says: Test compounds were applied by pipette from 10'000 ppm DMSO stock solutions into 24-well plates and mixed with agar. Lettuce seeds were placed onto the agar and the multi well plate was closed by another plate which contained also agar. After 7 days the compound was absorbed by the roots and the lettuce grew into the lid plate. The lettuce leaves were then cut off into the lid plate. Spodoptera eggs were pipetted through a plastic stencil onto a humid gel blotting paper and the lid plate was closed with it. The samples were assessed for mortality, anti-feedant effect and growth inhibition in comparison to untreated samples 6 days after infestation. The following compounds gave an effect of at least 80% in at least one of the three categories (mortality, anti-feeding, or growth inhibition) at a test rate of 12.5 ppm: • P10, P13, P14 and P15.

The subject of assay [11] is Myzus persicae (Green Peach Aphid). In words: Example B4: Myzus persicae feeding/contact activity. The note with it: 144 h, application rate of 200 ppm, 6 days after infestation. The procedure: Sunflower leaf discs were placed onto agar in a 24-well microtiter plate and sprayed with aqueous test solutions prepared from 10'000 ppm DMSO stock solutions. After drying, the leaf discs were infested with an aphid population of mixed ages. The samples were assessed for mortality 6 days after infestation.

`CCS(=O)(=O)c1ccc(-c2ccc(Cl)cc2)nc1-c1nc2cc(C(F)(F)F)ncc2n1C` [Compound P1, 2-[6-(4-chlorophenyl)-3-ethylsulfonyl-2-pyridyl]-3-methyl-6-(trifluoromethyl)imidazo[4,5-c]pyridine] had a percent control (mortality, anti-feedant effect or growth inhibition) at 200 ppm in assay [1] of at least 80%. The percent effect (mortality or growth inhibition) at 200 ppm in assay [2], in assay [4] and in assay [7] was at least 80% in each case. Further, the “BP80 Values Diabrotica balteata” value in [3] came to 3 ppm. The “BP80 Values Spodoptera littoralis” value in assay [5] amounted to 12 ppm. In assay [6], the “BP80 Values Plutella xylostella” value is 12 ppm.
`CCS(=O)(=O)c1ccc(/C=C/c2ccccc2C(F)(F)F)nc1-c1nc2cc(C(F)(F)F)ncc2n1C` [Compound P2, 2-[3-ethylsulfonyl-6-[(E)-2-[2-(trifluoromethyl)phenyl]vinyl]-2-pyridyl]-3-methyl-6-(trifluoromethyl)imidazo[4,5-c]pyridine] showed a percent control (mortality, anti-feedant effect or growth inhibition) at 200 ppm in [1] of at least 80%. Further, the percent effect (mortality or growth inhibition) at 200 ppm in assay [2] and in assay [4] was at least 80% in each case.
Turning to `CCS(=O)(=O)c1cc(C(F)(F)F)c(-c2ccc(C(F)(F)F)cc2)nc1-c1nc2cc(C(F)(F)F)ncc2n1C` [Compound P4, 2-[3-ethylsulfonyl-5-(trifluoromethyl)-6-[4-(trifluoromethyl)phenyl]-2-pyridyl]-3-methyl-6-(trifluoromethyl)imidazo[4,5-c]pyridine], in assay [8], the “BP80 Values Diabrotica balteata” value is 10 ppm. The compound further registered a percent control (mortality, anti-feedant effect or growth inhibition) at 200 ppm in assay [1] of at least 80%. The percent effect (mortality or growth inhibition) at 200 ppm in [2] and in assay [4] was at least 80% throughout.
As for `CCS(=O)(=O)c1cc(C(F)(F)F)c(-c2cccc(C(F)(F)F)c2)nc1-c1nc2cc(C(F)(F)F)ncc2n1C` [Compound P5], the “BP80 Values Diabrotica balteata” value in assay [8] amounted to 10 ppm. The percent control (mortality, anti-feedant effect or growth inhibition) at 200 ppm in assay [1] was at least 80%. In assay [2], the percent effect (mortality or growth inhibition) at 200 ppm is at least 80%.
`CCS(=O)(=O)c1cc(C(F)(F)F)c(-c2ccccc2Cl)nc1-c1nc2cc(C(F)(F)F)ncc2n1C` [Compound P6]: in assay [1], the percent control (mortality, anti-feedant effect or growth inhibition) at 200 ppm is at least 80%. The percent effect (mortality or growth inhibition) at 200 ppm in assay [2] and in [4] was at least 80% throughout.
`CCS(=O)(=O)c1ccc(-c2cc(F)cc(F)c2)nc1-c1nc2cc(C(F)(F)F)ncc2n1C` [Compound P8, 2-[6-(3,5-difluorophenyl)-3-ethylsulfonyl-2-pyridyl]-3-methyl-6-(trifluoromethyl)imidazo[4,5-c]pyridine]: the percent control (mortality, anti-feedant effect or growth inhibition) at 200 ppm in [1] was at least 80%. Moreover, the percent effect (mortality or growth inhibition) at 200 ppm in [2], in [4] and in assay [7] was at least 80% in each case.
In assay [1], `CCS(=O)(=O)c1ccc(-n2ccc(C(F)(F)F)n2)nc1-c1nc2cc(SC(F)(F)F)ncc2n1C` [Compound P9, 2-[3-ethylsulfonyl-6-[3-(trifluoromethyl)pyrazol-1-yl]-2-pyridyl]-3-methyl-6-(trifluoromethylsulfanyl)imidazo[4,5-c]pyridine] displayed a percent control (mortality, anti-feedant effect or growth inhibition) at 200 ppm of at least 80%. In addition, the mortality at 200 ppm in assay [9] was at least 80%. In addition, the percent effect (mortality or growth inhibition) at 200 ppm in [2], in [4] and in [7] was at least 80% in each case.
In assay [1], `CCS(=O)(=O)c1ccc(-n2ccc(Cl)n2)nc1-c1nc2cc(SC(F)(F)F)ncc2n1C` [Compound P11] yielded a percent control (mortality, anti-feedant effect or growth inhibition) at 200 ppm of at least 80%. Also, the percent effect (mortality or growth inhibition) at 200 ppm in assay [2] and in assay [4] was at least 80% throughout.
The compound `CCS(=O)(=O)c1ccc(C2CC2)nc1-c1nc2cc(Br)ncc2n1C` [Compound P12, 6-bromo-2-(6-cyclopropyl-3-ethylsulfonyl-2-pyridyl)-3-methyl-imidazo[4,5-c]pyridine] yielded a percent control (mortality, anti-feedant effect or growth inhibition) at 200 ppm in assay [1] of at least 80%. Further, the percent effect (mortality or growth inhibition) at 200 ppm in assay [2] and in [4] was at least 80% each time.
On to `CCS(=O)(=O)c1ccc(C2CC2)nc1-c1nc2cc(C(F)(F)F)nnc2n1C` [Compound P14, 6-(6-cyclopropyl-3-ethylsulfonyl-2-pyridyl)-7-methyl-3-(trifluoromethyl)imidazo[4,5-c]pyridazine], for which, in [10], the percent effect (mortality, anti-feeding or growth inhibition) at 12.5 ppm was at least 80%. In [1], this compound showed a percent control (mortality, anti-feedant effect or growth inhibition) at 200 ppm of at least 80%. The mortality at 200 ppm in assay [9] and in assay [11] was at least 80% in each case. The percent effect (mortality or growth inhibition) at 200 ppm in [2], in [4] and in assay [7] was at least 80% in each case.
`CCS(=O)(=O)c1ccc(C2CC2)nc1-c1nc2cc(C(F)(F)F)ncc2n1C` [Compound P15, 2-(6-cyclopropyl-3-ethylsulfonyl-2-pyridyl)-3-methyl-6-(trifluoromethyl)imidazo[4,5-c]pyridine]: in assay [10], the percent effect (mortality, anti-feeding or growth inhibition) at 12.5 ppm is at least 80%. In addition, the percent control (mortality, anti-feedant effect or growth inhibition) at 200 ppm in assay [1] is at least 80%. Also, the percent effect (mortality or growth inhibition) at 200 ppm in assay [2], in assay [4] and in assay [7] was at least 80% in each case. In addition, the mortality at 200 ppm in assay [11] is at least 80%.
As for `CCS(=O)(=O)c1cc(C(F)(F)F)cnc1-c1nc2cc(C(F)(F)F)ncc2n1C` [Compound V12.01, reference compound], the “BP80 Values Diabrotica balteata” value in assay [8] stood at 16 ppm.
In the case of `CCS(=O)(=O)c1cccnc1-c1nc2cc(C(F)(F)F)ncc2n1C` [Compound V12.03, reference compound], the “BP80 Values Diabrotica balteata” value in [3] was determined as 16 ppm. For the same compound, in assay [5], the “BP80 Values Spodoptera littoralis” value is reported as 250 ppm. Moreover, the “BP80 Values Plutella xylostella” value in assay [6] is given as 250 ppm.
